# Results from patent US12129233B2, “Water-soluble salts of cannabinoids, preparation and uses thereof” (priority 2021, dated 2024).
# Where a name gives a salt, the structure may show the parent alone. Read-outs that look alike come from different tables or passages of the source.
# Legend:
# [1] = in water; parent cannabinoid without base, literature value (footnotes a-f); cited from earlier work
# [2] = in water; synthesized salts (and cannabinol parent)
# physchem = conditions: water
# [3] = Solubility, in water, synthesized salts (and cannabinol parent)
compound,measurement,setting,value
C=C(C)[C@@H]1CCC(C)=C[C@H]1c1c(O)cc(CCCCC)cc1O [Cannabidiol],Solubility,[1],0.0007^[a] mg/mL
C=C(C)[C@@H]1CCC(C)=C[C@H]1c1c(O)cc(CCCCC)c(C(=O)O)c1O [Cannabidiolic acid],Solubility,[1],2.2^[c] mg/mL
"CCCCCc1cc(O)c2c(c1)OC(C)(C)C1CCC(C)=CC21 (centres unmarked) [drawing 25, Δ^9-tetrahydrocannabinol]",Solubility,[1],0.0028^[b] mg/mL
"CCCCCc1cc(O)c2c(c1)OC(C)(C)C1CCC(C)=CC21 (centres unmarked) [drawing 25/drawing 26 1:1, Choline Salt with THC (1:1)]",Solubility,[2],3000 µg/mL
"CCCCCc1cc(O)c2c(c1)OC(C)(C)C1CCC(C)=CC21 [drawing 25/drawing 27 1:1, L-Lysine Salt with THC (1:1)]",Solubility,[2],2000 µg/mL
"CCCCCc1cc(O)c2c(c1)OC(C)(C)C1CCC(C)=CC21 (centres unmarked) [drawing 25/drawing 28 1:1, Meglumine Salt with THC (1:1)]",Solubility,physchem; Solubility,9000 µg/mL
"CCCCCc1cc(O)c2c(c1)OC(C)(C)C1CCC(C)=CC21 (centres unmarked) [drawing 25/drawing 29 1:1, Agmatine Salt with THC (1:1)]",Solubility,[2],200 µg/mL
"C=C(C)C1CCC(C)=CC1c1c(O)cc(CCCCC)c(C(=O)O)c1O (centres unmarked) [drawing 30/drawing 31 1:3, Choline Salt with Cannabidiolic Acid (3:1)]",Solubility,physchem; [3],24000 µg/mL
"CCCCCc1cc2c(c(O)c1C(=O)O)C1C=C(C)CCC1C(C)(C)O2 (centres unmarked) [drawing 32, Tetrahydrocannabinolic acid]",Solubility,[1],0.048^[d] mg/mL
"CCCCCc1cc2c(c(O)c1C(=O)O)C1C=C(C)CCC1C(C)(C)O2 (centres unmarked) [drawing 32/drawing 33 1:2, Choline Salt with Tetrahydrocannabinolic Acid (2:1)]",Solubility,physchem; [3],20000 µg/mL
"CCCCCc1cc2c(c(O)c1C(=O)O)C1C=C(C)CCC1C(C)(C)O2 (centres unmarked) [drawing 32/drawing 34 1:2, Meglumine Salt with Tetrahydrocannabinolic Acid (2:1)]",Solubility,physchem; Solubility,20000 µg/mL
"CCCCCc1cc(O)c(C/C=C(\C)CCC=C(C)C)c(O)c1 [drawing 35/drawing 36 1:1, 1-Benzylpyridinium cannabigerol salt (1:1)]",Solubility,physchem,1000 µg/mL
"CCCc1cc(O)c2c(c1)OC(C)(C)C1CCC(C)=CC21 (centres unmarked) [drawing 37, Δ^9-Tetrahydrocannabivarin]",Solubility,[1],0.009^[f] mg/mL
"CCCc1cc(O)c2c(c1)OC(C)(C)C1CCC(C)=CC21 (centres unmarked) [drawing 37/drawing 38 1:1, Tetrakis(2-hydroxyethyl)ammonium Salt with Δ^9-Tetrahydrocannabivarin (1:1)]",Solubility,[2],7000 µg/mL
"CCCc1cc(O)c2c(c1)OC(C)(C)C1CCC(C)=CC21 (centres unmarked) [drawing 37/n^−Bu4N^+ 1:1, Tetrabutylammonium Salt with Δ^9-Tetrahydrocannabivarin (1:1)]",Solubility,[2],200 µg/mL
"CCCCCc1cc(O)c2c(c1)OC(C)(C)c1ccc(C)cc1-2 [drawing 39, Cannabinol, reference compound]",Solubility,[2],insoluble
"CCCCCc1cc(O)c2c(c1)OC(C)(C)c1ccc(C)cc1-2 [drawing 39/Et4N^+ 1:1, Tetraethylammonium Salt with Cannabinol (1:1)]",Solubility,[2],200 µg/mL
"CCCCCc1cc(O)c2c(c1)OC(C)(C)c1ccc(C)cc1-2 [drawing 39/drawing 41 1:1, Acetylcholine Salt with Cannabinol (1:1)]",Solubility,[2],1000 µg/mL
Procaine Salt with CBD (1:1) [drawing 17/drawing 22 1:1],Solubility,[2],5000 µg/mL
Procaine Salt with CBD (2:1) [drawing 17/drawing 22 1:2],Solubility,[2],6000 µg/mL
